PubChem BioAssay AID1919007 (Molecular Pharmacology Branch, DTP, NCI, 2023)

Test system: A498 complex spheroids with HUVEC/MSC, growth
Experiment: Anticancer human tumor A498 cell line growth inhibition [AhR];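 note: seven day exposure starting three days after spheroid seeding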;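 for viability, T/C: luminescence signal used as a surrogate for viable cells; luminescence viability scaled so 100% equals DMSO vehicle wells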
Conditions: for IC50: curve of first compound; for viability, T/C: stronger effect = lower value
Outline: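 Complex tumor spheroids co-cultured with HUVEC and human MSC stroma; AhR antagonists tested in combination with standard-of-care and investigational agents. Top concentration at or near clinical Cmax (else 10 microM), half-log dilutions; growth expressed as percent test/control.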

[1] = second compound 0.1 µM, first compound 0.0316 µM
[2] = second compound 0.1 µM, first compound 0.1 µM
[3] = second compound 0.1 µM, first compound 0.316 µM
[4] = second compound 0.1 µM, first compound 1 µM
[5] = second compound 0.1 µM, first compound 3.16 µM
[6] = second compound 0.1 µM, first compound 10 µM
[7] = second compound 0.316 µM, first compound 0.0316 µM
[8] = second compound 0.316 µM, first compound 0.1 µM
[9] = second compound 0.316 µM, first compound 0.316 µM
[10] = second compound 0.316 µM, first compound 1 µM
[11] = second compound 0.316 µM, first compound 3.16 µM
[12] = second compound 0.316 µM, first compound 10 µM
[13] = second compound 1 µM, first compound 0.0316 µM
[14] = second compound 1 µM, first compound 0.1 µM
[15] = second compound 1 µM, first compound 0.316 µM
[16] = second compound 1 µM, first compound 1 µM
[17] = second compound 1 µM, first compound 3.16 µM
[18] = second compound 1 µM, first compound 10 µM
[19] = second compound 3.16 µM, first compound 0.0316 µM
[20] = second compound 3.16 µM, first compound 0.1 µM
[21] = second compound 3.16 µM, first compound 0.316 µM
[22] = second compound 3.16 µM, first compound 1 µM
[23] = second compound 3.16 µM, first compound 3.16 µM
[24] = second compound 3.16 µM, first compound 10 µM
[25] = second compound 10 µM, first compound 0.0316 µM
[26] = second compound 10 µM, first compound 0.1 µM
[27] = second compound 10 µM, first compound 0.316 µM
[28] = second compound 10 µM, first compound 1 µM
[29] = second compound 10 µM, first compound 3.16 µM
[30] = second compound 10 µM, first compound 10 µM

Compound: CC(C)c1c(-c2ccccc2)nc2c(C#N)c[nH]n2c1=O + Cc1cncc(-c2nc(NCCc3c[nH]c4ccccc34)c3ncn(C(C)C)c3n2)c1
- IC50 (second compound 0.1 µM): > 10000 nM
- IC50 (second compound 0.316 µM): > 10000 nM
- IC50 (second compound 1 µM): > 10000 nM
- IC50 (second compound 3.16 µM): > 10000 nM
- IC50 (second compound 10 µM): < 31.6 nM
- viability, T/C [1]: 89.4%
- viability, T/C [2]: 92.7%
- viability, T/C [3]: 98.5%
- viability, T/C [4]: 104%
- viability, T/C [5]: 100%
- viability, T/C [6]: 94.8%
- viability, T/C [7]: 103%
- viability, T/C [8]: 104%
- viability, T/C [9]: 95.6%
- viability, T/C [10]: 91%
- viability, T/C [11]: 96.9%
- viability, T/C [12]: 98.5%
- viability, T/C [13]: 92.6%
- viability, T/C [14]: 95.8%
- viability, T/C [15]: 95.2%
- viability, T/C [16]: 88.8%
- viability, T/C [17]: 91.6%
- viability, T/C [18]: 91.2%
- viability, T/C [19]: 50.7%
- viability, T/C [20]: 49.1%
- viability, T/C [21]: 52.8%
- viability, T/C [22]: 54.9%
- viability, T/C [23]: 49.2%
- viability, T/C [24]: 52.7%
- viability, T/C [25]: 3%
- viability, T/C [26]: 4.01%
- viability, T/C [27]: 4.28%
- viability, T/C [28]: 3.84%
- viability, T/C [29]: 3.64%
- viability, T/C [30]: 4.87%

Compound: CC1COCCN1c1cc(-c2ccnn2C)c2ccnc(-c3ccn[nH]3)c2n1 (stereo not given) + Cc1cncc(-c2nc(NCCc3c[nH]c4ccccc34)c3ncn(C(C)C)c3n2)c1
- IC50 (second compound 0.1 µM): 111 nM
- IC50 (second compound 0.316 µM): 129 nM
- IC50 (second compound 1 µM): 105 nM
- IC50 (second compound 3.16 µM): 24.4 nM
- IC50 (second compound 10 µM): < 3.16 nM
- viability, T/C (second compound 0.1 µM, first compound 0.00316 µM): 94.3%
- viability, T/C (second compound 0.1 µM, first compound 0.01 µM): 102%
- viability, T/C [1]: 90.6%
- viability, T/C [2]: 52.5%
- viability, T/C [3]: 24.5%
- viability, T/C [4]: 19.4%
- viability, T/C (second compound 0.316 µM, first compound 0.00316 µM): 98.5%
- viability, T/C (second compound 0.316 µM, first compound 0.01 µM): 103%
- viability, T/C [7]: 89%
- viability, T/C [8]: 57.4%
- viability, T/C [9]: 26%
- viability, T/C [10]: 20.5%
- viability, T/C (second compound 1 µM, first compound 0.00316 µM): 91.3%
- viability, T/C (second compound 1 µM, first compound 0.01 µM): 96.8%
- viability, T/C [13]: 81.5%
- viability, T/C [14]: 52.2%
- viability, T/C [15]: 23.5%
- viability, T/C [16]: 21.4%
- viability, T/C (second compound 3.16 µM, first compound 0.00316 µM): 49.4%
- viability, T/C (second compound 3.16 µM, first compound 0.01 µM): 50.1%
- viability, T/C [19]: 51.4%
- viability, T/C [20]: 41.2%
- viability, T/C [21]: 22.8%
- viability, T/C [22]: 19.5%
- viability, T/C (second compound 10 µM, first compound 0.00316 µM): 3.71%
- viability, T/C (second compound 10 µM, first compound 0.01 µM): 4.4%
- viability, T/C [25]: 6.04%
- viability, T/C [26]: 3.64%
- viability, T/C [27]: 4.9%
- viability, T/C [28]: 10.9%

Compound: COc1ccc([C@@H](O)c2cc(-c3ncnc4cc(N5CCOCC5)ccc34)c(F)cc2Cl)nn1 + Cc1cncc(-c2nc(NCCc3c[nH]c4ccccc34)c3ncn(C(C)C)c3n2)c1
- IC50 (second compound 0.1 µM): 477 nM
- IC50 (second compound 0.316 µM): 549 nM
- IC50 (second compound 1 µM): 434 nM
- IC50 (second compound 3.16 µM): < 31.6 nM
- IC50 (second compound 10 µM): < 31.6 nM
- viability, T/C [1]: 89.2%
- viability, T/C [2]: 86.9%
- viability, T/C [3]: 59%
- viability, T/C [4]: 30.6%
- viability, T/C [5]: 19.1%
- viability, T/C [6]: 10.1%
- viability, T/C [7]: 89.5%
- viability, T/C [8]: 85.9%
- viability, T/C [9]: 67%
- viability, T/C [10]: 31.1%
- viability, T/C [11]: 17.7%
- viability, T/C [12]: 11.8%
- viability, T/C [13]: 80.6%
- viability, T/C [14]: 85.1%
- viability, T/C [15]: 57.5%
- viability, T/C [16]: 26.6%
- viability, T/C [17]: 17.5%
- viability, T/C [18]: 12.4%
- viability, T/C [19]: 45.1%
- viability, T/C [20]: 49.3%
- viability, T/C [21]: 39.3%
- viability, T/C [22]: 25%
- viability, T/C [23]: 15.4%
- viability, T/C [24]: 11.6%
- viability, T/C [25]: 3.91%
- viability, T/C [26]: 4.22%
- viability, T/C [27]: 4.26%
- viability, T/C [28]: 3.54%
- viability, T/C [29]: 3.86%
- viability, T/C [30]: 8.65%

Compound: O=C(C=Cn1cnc(-c2cc(C(F)(F)F)cc(C(F)(F)F)c2)n1)NNc1cnccn1 + Cc1cncc(-c2nc(NCCc3c[nH]c4ccccc34)c3ncn(C(C)C)c3n2)c1
- IC50 (second compound 0.1 µM): 81.5 nM
- IC50 (second compound 0.316 µM): 105 nM
- IC50 (second compound 1 µM): 78.2 nM
- IC50 (second compound 3.16 µM): 72.4 nM
- IC50 (second compound 10 µM): < 9.49 nM
- viability, T/C (second compound 0.1 µM, first compound 0.00949 µM): 86.3%
- viability, T/C (second compound 0.1 µM, first compound 0.03 µM): 73.7%
- viability, T/C (second compound 0.1 µM, first compound 0.0949 µM): 46.5%
- viability, T/C (second compound 0.1 µM, first compound 0.3 µM): 30.3%
- viability, T/C (second compound 0.1 µM, first compound 0.949 µM): 25.3%
- viability, T/C (second compound 0.1 µM, first compound 3 µM): 26.6%
- viability, T/C (second compound 0.316 µM, first compound 0.00949 µM): 87.2%
- viability, T/C (second compound 0.316 µM, first compound 0.03 µM): 81.1%
- viability, T/C (second compound 0.316 µM, first compound 0.0949 µM): 51.5%
- viability, T/C (second compound 0.316 µM, first compound 0.3 µM): 30.9%
- viability, T/C (second compound 0.316 µM, first compound 0.949 µM): 30.8%
- viability, T/C (second compound 0.316 µM, first compound 3 µM): 22.2%
- viability, T/C (second compound 1 µM, first compound 0.00949 µM): 84.8%
- viability, T/C (second compound 1 µM, first compound 0.03 µM): 73.2%
- viability, T/C (second compound 1 µM, first compound 0.0949 µM): 45.6%
- viability, T/C (second compound 1 µM, first compound 0.3 µM): 27.9%
- viability, T/C (second compound 1 µM, first compound 0.949 µM): 25%
- viability, T/C (second compound 1 µM, first compound 3 µM): 24.6%
- viability, T/C (second compound 3.16 µM, first compound 0.00949 µM): 69.3%
- viability, T/C (second compound 3.16 µM, first compound 0.03 µM): 67.6%
- viability, T/C (second compound 3.16 µM, first compound 0.0949 µM): 43.9%
- viability, T/C (second compound 3.16 µM, first compound 0.3 µM): 30.1%
- viability, T/C (second compound 3.16 µM, first compound 0.949 µM): 24.2%
- viability, T/C (second compound 3.16 µM, first compound 3 µM): 23.2%
- viability, T/C (second compound 10 µM, first compound 0.00949 µM): 3.95%
- viability, T/C (second compound 10 µM, first compound 0.03 µM): 5.26%
- viability, T/C (second compound 10 µM, first compound 0.0949 µM): 7.65%
- viability, T/C (second compound 10 µM, first compound 0.3 µM): 6.47%
- viability, T/C (second compound 10 µM, first compound 0.949 µM): 8.27%
- viability, T/C (second compound 10 µM, first compound 3 µM): 11.1%
